Results: PubChem BioAssay (NCI)
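Briefly, cells in 96-well plates were exposed to five compound concentrations for 48 h, and endpoints were estimated by linear interpolation. TGI: total growth inhibition.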

Columns and labels:
Test in all cases: NCI tumour cell line growth inhibition, 48 h
[1] = system: A549 NSCLC
[2] = system: CAKI-1 renal
[3] = system: DU-145 prostate
[4] = system: HCT-116 colon
[5] = system: HL-60(TB) leukemia
[6] = system: IGROV1 ovarian
[7] = system: K-562 leukemia
[8] = system: MDA-MB-435
[9] = system: MOLT-4 leukemia
[10] = system: NCI-H226 lung
[11] = system: SK-MEL-2 melanoma
[12] = system: SR leukemia
[13] = system: SW-620 colon
[14] = system: UACC-257 melanoma
[15] = system: UO-31 renal
[16] = system: CCRF-CEM leukemia
[17] = system: HOP-62 NSCLC

Compound | TGI [1] | TGI [2] | TGI [3] | TGI [4] | TGI [5] | TGI [6] | TGI [7] | TGI [8] | TGI [9] | TGI [10] | TGI [11] | TGI [12] | TGI [13] | TGI [14] | TGI [15] | TGI [16] | TGI [17]
COC(=O)c1ccc(NCC2=CC(=O)C=CC2=O)cc1 | 41.8 µM | 7.68 µM | 28.8 µM | 30.4 µM | 5.5 µM | 34.1 µM | 6.95 µM | 24.3 µM | 9.58 µM | 37.2 µM | 37.4 µM | 61 µM | 25.9 µM | 25.7 µM | 19.5 µM | – | –
CCOC(=O)c1ccc(Nc2nc3cc(C(F)(F)F)ccc3nc2C(=O)OCC)cc1 | > 100 µM | 49.6 µM | > 100 µM | > 100 µM | > 100 µM | > 100 µM | > 100 µM | > 100 µM | > 100 µM | – | – | > 100 µM | > 100 µM | > 100 µM | > 100 µM | > 100 µM | 65.2 µM
COC(=O)[C@@H]1OC(C)(c2ccccc2)O[C@H]1C(=O)OC | > 100 µM | > 100 µM | > 100 µM | – | > 100 µM | > 100 µM | > 100 µM | > 100 µM | > 100 µM | > 100 µM | > 100 µM | > 100 µM | > 100 µM | > 100 µM | > 100 µM | > 100 µM | > 100 µM
CC12C(=O)OC(=O)C1(C)C1C=CC2O1 (stereo not drawn) | > 100 µM | > 100 µM | > 100 µM | > 100 µM | > 100 µM | > 100 µM | > 100 µM | > 100 µM | > 100 µM | 48.1 µM | > 100 µM | > 100 µM | > 100 µM | > 100 µM | > 100 µM | > 100 µM | –
c1cc(C[S+]2CCCC2)sc1C[S+]1CCCC1 | > 100 µM | > 100 µM | > 100 µM | > 100 µM | > 100 µM | > 100 µM | > 100 µM | > 100 µM | > 100 µM | > 100 µM | – | > 100 µM | > 100 µM | > 100 µM | > 100 µM | > 100 µM | > 100 µM
O=C1OC(CS(=O)(=O)c2ccccc2)CC1O (stereo not drawn) | > 100 µM | > 100 µM | > 100 µM | > 100 µM | – | > 100 µM | > 100 µM | > 100 µM | > 100 µM | > 100 µM | > 100 µM | > 100 µM | > 100 µM | > 100 µM | > 100 µM | > 100 µM | > 100 µM
CC1=CC(=O)/C(=C/n2c(=S)[nH]c3ccc([N+](=O)[O-])cc32)C(=O)O1 | > 100 µM | – | > 100 µM | > 100 µM | 4.93 µM | > 100 µM | > 100 µM | > 100 µM | > 100 µM | > 100 µM | > 100 µM | > 100 µM | > 100 µM | > 100 µM | > 100 µM | > 100 µM | > 100 µM
CCOC(=O)c1cc(C#N)[nH]c1-c1ccsc1 | > 100 µM | > 100 µM | 58.8 µM | > 100 µM | 41.5 µM | > 100 µM | 93 µM | 51.9 µM | 53.1 µM | > 100 µM | > 100 µM | 35.5 µM | > 100 µM | > 100 µM | – | 69.3 µM | > 100 µM
CC1c2cc(c3c(c2O)CN([C@@H](C)C2CCCCC2)CO3)C(C)c2cc(c3c(c2O)CN([C@@H](C)C2CCCCC2)CO3)C(C)c2cc(c3c(c2O)CN([C@@H](C)C2CCCCC2)CO3)C(C)c2cc1c1c(c2O)CN([C@@H](C)C2CCCCC2)CO1 (stereo partly drawn) | > 100 µM | 2.95 µM | 2.64 µM | 2.04 µM | 5.59 µM | 2.61 µM | 2.01 µM | 3.62 µM | 9.63 µM | 2.22 µM | 6.2 µM | 1.44 µM | – | 3.24 µM | 3.21 µM | 1.45 µM | –
CC(C)N1[C@@H]2CCCC[C@H]2N(C(C)C)P1(=O)C(=O)/C=C/c1ccccc1 | 12.4 µM | 7.31 µM | 4.94 µM | 3.73 µM | 4.84 µM | 4.37 µM | > 100 µM | 3.74 µM | 16.1 µM | 24.6 µM | 8.17 µM | 8.27 µM | – | 13.5 µM | 3.13 µM | – | 13.7 µM
O=C(c1cccs1)N(Cc1cccnc1)C(=S)N(Cc1cccnc1)C(=O)c1cccs1 | > 100 µM | > 100 µM | > 100 µM | > 100 µM | > 100 µM | – | > 100 µM | > 100 µM | > 100 µM | > 100 µM | > 100 µM | > 100 µM | > 100 µM | > 100 µM | > 100 µM | > 100 µM | > 100 µM
COc1ccc(-n2sc3ncc([N+](=O)[O-])cc3c2=O)cc1 | > 100 µM | – | > 100 µM | > 100 µM | > 100 µM | > 100 µM | – | > 100 µM | > 100 µM | > 100 µM | > 100 µM | > 100 µM | > 100 µM | > 100 µM | > 100 µM | > 100 µM | > 100 µM
CC1(O)Oc2ccc3ccccc3c2C=C1C(N)=O (stereo not drawn) | – | > 100 µM | > 100 µM | > 100 µM | > 100 µM | > 100 µM | > 100 µM | > 100 µM | > 100 µM | – | > 100 µM | > 100 µM | > 100 µM | > 100 µM | > 100 µM | > 100 µM | > 100 µM
O=C(c1ccccc1)C1C[C@H]2CO[C@H](c3ccccc3)N2C1=O (stereo partly drawn) | > 100 µM | > 100 µM | > 100 µM | > 100 µM | – | > 100 µM | > 100 µM | > 100 µM | > 100 µM | > 100 µM | > 100 µM | > 100 µM | > 100 µM | > 100 µM | > 100 µM | > 100 µM | –
O=c1[nH]c2cc([N+](=O)[O-])ccc2nc1/C=C(\O)c1ccc(Cl)cc1 | 22.6 µM | 33.1 µM | 23 µM | 11.8 µM | 44.1 µM | 26.6 µM | > 100 µM | 45.2 µM | 46.2 µM | 40.6 µM | 36.4 µM | 38.9 µM | 28.9 µM | 60.5 µM | 86.2 µM | 33.8 µM | –
